Results published in patent US20240360109A1 (SHANGHAI HANSOH BIOMEDICAL CO., LTD., priority 2021, published 2024).

Key:
human GLP-1 receptor = target: T1, human GLP-1 receptor (Homo sapiens, UniProt P43220); assay: Stimulation of human GLP1 receptor stable transgenic cell line CHO-K1/GLP-1R/CRE-luc to produce cAMP (HTRF); type: cell-based; settings: cAMP production, CHO-K1/GLP-1R/CRE-luc cells, 30 minutes incubation, 0.5 mM IBMX
T1 construct: expressed in transfected cells
Source text: I. Determination of the Ability of the Compound of the Present Invention to Stimulate Human GLP1 Receptor Stable Transgenic Cell Lines to Produce cAMP
The purpose of this test example is to determine the ability of the compound to activate the human GLP-1 receptor on the cell surface. The EC50 that stimulates […] after agonism characterizes the compound's ability to activate the human GLP-1 receptor.
The frozen human GLP1 receptor stable transgenic cell line CHO-K1/GLP-1R/CRE-luc was taken from the liquid nitrogen tank, quickly thawed in a 37° C. water bath, resuspended with DMEM/F12 medium, centrifuged, and washed once. The cells were resuspended with the experimental buffer, namely DMEM/F12 medium containing 0.1% casein, and the experimental buffer was used to adjust the cell density. The cells were spread on spread on a 384-well plate at a density of 2500 cells/5 μL/well, and then to each well was added 2.5 μL of buffer-prepared IBMX working solution with a final concentration of IBMX of 0.5 mM, and 2.5 μL of the compound sample with gradient dilution (starting at 1000 nM, 3-fold dilution, 11 concentrations). The plate was centrifuged at 1000 rpm for 1 minute, shaken for 30 seconds to mix well, and incubated at room temperature for 30 minutes. Detection was performed using the Cisbio cAMP—Gs Dynamic kit. cAMP-d2 and Anti-cAMP-Eu^3+-Cryptate were diluted 20-fold with cAMP Lysis & Detection Buffer, respectively, and mixed well. To each well was added 5 μL diluted cAMP-d2 solution, and then added 5 μL diluted Anti-cAMP-Eu3^+-Cryptate solution. The plate was shaken for 30 seconds, and incubated at room temperature for 1 hour in the dark. The signal reading of HTRF was performed using the Biotek Synergy H1 microplate reader with an excitation wavelength of 320 nm and emission wavelengths of 620 nm and 665 nm.
The signal ratio (665 nm/620 nm*10,000) was calculated, and the signal ratio and sample concentration were nonlinearly fitted using a four-parameter equation in GraphPad Prism 6 to obtain the EC50 value.

[1] = Pharmacokinetic assay of SD rats; type: in vivo; settings: Sprague-Dawley, rat, po; male SD rats, plasma, dose 50 mg/kg (b1219 prints 5 mg/kg)
Procedure: SD rats were used as test animals. The pharmacokinetic behavior of the following example compounds was studied in the plasma of rats administered orally at a dose of 50 mg/kg.
Vehicle formula: 0.5% CMC-Na (1% Tween 80);
Three SD rats per group, male. […]
Before and after administration, 0.2 mL of blood was collected from the jugular vein at 0, 0.25, 0.5, 1, 2, 4, 6, 8 and 24 hours, placed in EDTA-K2 tubes, centrifuged at 6000 rpm at 4° C. for 6 min to separate the plasma. The plasma samples were stored at −80° C. The […] was fed 4 hours after the administration.
• 1) 160 μL of acetonitrile was added to 40 μL of the plasma sample for precipitation, and then the mixture was centrifuged at 3500×g for 5-20 min. • 2) After the above process, 100 μL of the supernatant was taken to analyze the concentration of the test compound by LC/MS/MS.
• Liquid chromatography condition: Shimadzu LC-20AD pump Mass spectrometry condition: AB Sciex API 4000 mass spectrometer Chromatographic column: phenomenex Gemiu 5 μm C18 50×4.6 mm • Mobile phase: Eluent A was 0.1% formic acid in water, and Eluent B was methanol • Flow rate: 1.0 mL/min • Elution time: 0-4.0 minutes, the eluent is as follows:
The main pharmacokinetic parameters were calculated using WinNonlin 8.2.

[2] = system: GLP-1R humanized C57BL/6 mice fed with high-fat diet; assay: Long-term administration: body weight and ingestion of GLP-1R humanized mice fed with high-fat diet; type: in vivo; settings: HFD mice; for Weight (g)-D0 Mean: Day 0 (day of first administration, baseline), 10 mg/kg oral once a day; for Body weight change(%)-D10 Mean: Day 10 versus Day 0, 10 mg/kg oral once a day
Source text: The purpose of this test is to evaluate the effects of long-term administration of the compound on the body weight and ingestion of GLP-1R humanized C57BL/6 mice fed with high-fat diet.
C57BL/6_hGLP-1R, male, 5-8 weeks; 60% high-fat diet (HFD); Ultra-clean workbench; Electronic balance.
3.1 On the day of feeding with high-fat diet, C57BL/6 mice were randomly divided into two groups according to their weight. The first group was Blank, with 7 mice fed with normal control diet, while the remaining animals were in the modeling group, fed with high-fat diet, and continued until the end of the experiment.
3.2 At the 8th week of HFD feeding, the modeling group animals were randomly divided with 7 animals per group according to their weight. The first group was the Vehicle group (Vehicle: 0.5% CMC Na+1% Tween 80), which was given vehicle; The remaining group was the administration group; Administration regimen: Oral administration of the corresponding compound, administration cycle was 14 days, once a day for 14 days, with an administration dose of 10 mg/kg and an administration volume of 10 mL/kg. The Blank group continued to be fed with normal diet without any administration operation.
3.3 The day of administration was defined as Day 0.
3.4 During each administration, animals were weighed and data was recorded. Oral administration is performed according to body weight, with an administration volume of 10 mL/kg.
3.5 Starting from Day 0 of the experiment, the food intake of each group of mice was measured once every three days. Specifically, the feed was changed after each weighing and administration, and the added and remaining amounts were recorded.
3.6 On the end day of Day 14, all mice were euthanized sequentially according to grouping order, and the livers were dissected and weighed.
The weight and weight change rate of mice after administration were summarize and statistically analyzed. Weight change rate calculation: (BWt−BW0)/BW0×100%. BWt represents the weight of the mice on Day t of the experiment, and BW0 represents the weight of the mice on Day 0 of the experiment.
Calculation of food intake: (added amount (g)−remaining amount (g))/number of animals per cage, cumulative food intake is the sum of daily food intake of each animal during the administration period.
Experimental data were analyzed using GraphPad Prism software. The t-test method was used for comparison between the two groups. The one-way ANOVA method was used for comparisons between three or more groups.

T1 sequence (P43220 24-463): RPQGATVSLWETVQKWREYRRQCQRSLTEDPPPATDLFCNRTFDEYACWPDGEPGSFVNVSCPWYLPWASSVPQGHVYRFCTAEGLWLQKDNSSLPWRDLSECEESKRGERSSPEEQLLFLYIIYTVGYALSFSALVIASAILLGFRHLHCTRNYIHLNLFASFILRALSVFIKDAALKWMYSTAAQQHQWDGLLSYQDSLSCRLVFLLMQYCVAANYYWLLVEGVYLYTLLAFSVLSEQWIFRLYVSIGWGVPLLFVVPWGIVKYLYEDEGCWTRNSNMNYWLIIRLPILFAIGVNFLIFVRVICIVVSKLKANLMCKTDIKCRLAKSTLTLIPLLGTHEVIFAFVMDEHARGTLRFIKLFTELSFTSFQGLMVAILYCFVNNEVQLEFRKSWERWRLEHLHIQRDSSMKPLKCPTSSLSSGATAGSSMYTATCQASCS

Row | EC50 (human GLP-1 receptor) | AUC(0-inf) [1] | AUC(0-t) [1] | Cmax [1] | Tmax [1] | half-life [1] | SMILES | further results
1 | 0.13 nM |  |  |  |  |  | O=C(O)c1ccc2nc(CN3CCC(c4cccc5c4OC(c4ccc(Cl)cc4F)C=C5F)CC3)n(C[C@@H]3CCO3)c2c1 (stereo partly drawn) [Example 1, 2-((4-(2-(4-Chloro-2-fluorophenyl)-4-fluoro-2H-chromen-8-yl)piperidin-1-yl)methyl)-1-(((S)-oxetan-2-yl)methyl)-1H-benzo[d]imidazole-6-carboxylic acid] | 
2 | 0.08 nM |  |  |  |  |  | [2H]C([2H])([2H])Oc1cc(Cl)ccc1[C@@]1([2H])C=C(F)c2cccc(C3CCN(Cc4nc5ccc(C(=O)O)cc5n4C[C@@H]4CCO4)CC3)c2O1 [Example 49, 2-((4-((R)-2-(4-Chloro-2-(methoxy-d3)phenyl)-4-fluoro-2H-chromen-8-yl-2-d)piperidin-1-yl)methyl)-1-(((S)-oxetan-2-yl)methyl)-1H-benzo[d]imidazole-6-carboxylic acid] | 
3 | 0.07 nM |  |  |  |  |  | [2H]C([2H])([2H])Oc1cc(Cl)ccc1[C@H]1C=C(F)c2cccc(C3CCN(Cc4nc5ccc(C(=O)O)nc5n4C[C@@H]4CCO4)CC3)c2O1 [Example 23-A, 2-((4-((R)-2-(4-chloro-2-(methoxy-d3)phenyl)-4-fluoro-2H-chromen-8-yl)piperidin-1-yl)methyl)-3-(((S)-oxetan-2-yl)methyl)-3H-imidazolo[4,5-b]pyridine-5-carboxylic acid] | 
4 | 0.06 nM |  |  |  |  |  | O=C(O)c1ccc2nc(CN3CCC(c4cccc5c4OC(c4ccc(Cl)cc4F)C=C5F)CC3)n(CC3(CF)CC3)c2c1 (stereo not drawn) [Example 3, 2-((4-(2-(4-Chloro-2-fluorophenyl)-4-fluoro-2H-chromen-8-yl)piperidin-1-yl)methyl)-1-((1-(fluoromethyl)cyclopropyl)methyl)-1H-benzo[d]imidazole-6-carboxylic acid] | 
5 | 0.06 nM | 21600 ng·h/mL | 21500 ng·h/mL | 7980 ng/mL | 0.5 h | 2 h | O=C(O)c1ccc2nc(CN3CCC(c4cccc5c4O[C@@H](c4ccc(Cl)cc4F)C=C5)CC3)n(C[C@@H]3CCO3)c2c1 [Example 53] | Weight (g)-D0 Mean ([2]; the 4th table): 28.34 g; Eeight (g)-D10 Mean ([2]; Day 10, 10 mg/kg oral once a day, the 4th table): 25.65 g; Body weight change(%)-D10 Mean ([2]; the 4th table): −9.53%
6 | 0.05 nM | 12600 ng·h/mL | 12600 ng·h/mL | 9400 ng/mL | 1 h | 1.6 h | N#Cc1ccc([C@H]2C=Cc3cccc(C4CCN(Cc5nc6ccc(C(=O)O)cc6n5C[C@@H]5CCO5)CC4)c3O2)c(F)c1 [Example 52, 2-((4-((R)-2-(4-Cyano-2-fluorophenyl)-2H-chromen-8-yl)piperidin-1-yl)methyl)-1-(((S)-oxetan-2-yl)methyl)-1H-benzo[d]imidazole-6-carboxylic acid] | 
7 | 0.07 nM | 35800 ng·h/mL | 35800 ng·h/mL | 7160 ng/mL | 2 h | 3.1 h | O=C(O)c1ccc2nc(CN3CCC(c4cccc5c4O[C@@H](c4ccc(Cl)cc4F)C=C5F)CC3)n(C[C@@H]3CCO3)c2n1 [Example 2-A, 2-((4-((R)-2-(4-chloro-2-fluorophenyl)-4-fluoro-2H-chroman-8-yl)piperidin-1-yl)methyl)-3-(((S)-oxetan-2-yl)methyl)-3H-imidazolo[4,5-b]pyridine-5-carboxylic acid] | 
8 | 0.05 nM |  |  |  |  |  | [2H]C([2H])([2H])Oc1cc(Cl)ccc1[C@H]1C=C(F)c2cccc(C3CCN(Cc4nc5ccc(C(=O)O)cc5n4C[C@@H]4CCO4)CC3)c2O1 [Example 24-A, 2-((4-((R)-2-(4-chloro-2-(methoxy-d3)phenyl)-4-fluoro-2H-chromen-8-yl)piperidin-1-yl)methyl)-1-(((S)-oxetan-2-yl)methyl)-1H-benzo[d]imidazole-6-carboxylic acid] | 
9 | 0.08 nM |  |  |  |  |  | [2H][C@]1(c2ccc(Cl)cc2F)C=Cc2cccc(C3CCN(Cc4nc5ccc(C(=O)O)cc5n4C[C@@H]4CCO4)CC3)c2O1 [Example 47] | 
10 | 0.1 nM | 10800 ng·h/mL | 10300 ng·h/mL | 2300 ng/mL | 1 h | 2 h | [2H][C@]1(c2ccc(Cl)cc2F)C=C(F)c2cccc(C3CCN(Cc4nc5ccc(C(=O)O)nc5n4C[C@@H]4CCO4)CC3)c2O1 [Example 40, 2-((4-((R)-2-(4-Chloro-2-fluorophenyl)-4-fluoro-2H-chromen-8-yl-2-d)piperidin-1-yl)methyl)-3-(((S)-oxetan-2-yl)methyl)-3H-imidazolo[4,5-b]pyridine-5-carboxylic acid] | Weight (g)-D0 Mean ([2]; the 3rd table): 28.40 g; Weight (g)-D10 Mean ([2]; Day 10, 10 mg/kg oral once a day, the 3rd table): 26.01 g; Body weight change(%)-D10 Mean ([2]; the 3rd table): −8.49%
